Results from patent US9353100B2, “Macrocyclic serine protease inhibitors, pharmaceutical compositions thereof, and their use for treating HCV infections” (Idenix Pharmaceuticals LLC, priority 2011, dated 2016).
Where two headings read alike, the source gives them in different places.

Key:
[1] = tested on: HCV genotype 1b Con1 strain subgenomic luciferase replicon (Zluc) in Huh-7 cells; assay: HCV luciferase replicon assay, genotype 1b (Zluc); format: cell-based; details: Hepatitis C virus, read-out: EC50 Against Relpicon 1b
Method: (§1) General procedure: The HCV luciferase replicon assay measures the ability of a test compound to inhibit HCV replication in cell culture after 3 days of treatment in a human hepatoma cell line (Huh-7) bearing a HCV replicon containing a luciferase-neomycin phosphotransferase fusion gene. The inhibition of HCV replication was measured by quantification of luciferase protein expression. Briefly, Huh-7 cells containing either the HCV genotype 1a H77 strain or genotype 1b Con1 strain subgenomic luciferase replicon (H1a-luc or Zluc, respectively) were grown in DMEM containing glucose, L-glutamine and sodium pyruvate, 10% fetal bovine serum (FBS), 100 IU/mL penicillin, 100 μg/mL streptomycin, 2 mM GlutaMAX, non-essential amino acids and 0.25 (H1a-luc) or 0.5 (Zluc) mg/mL G418. GlutaMAX was obtained from Invitrogen, Corp.; all other media reagents were obtained from Mediatech, Inc. For dose-response testing, the cells were seeded in 96-well plates at 1×10^4 (H1a-luc) or 7.5×10^3 (Zluc) cells/well in a volume of 50 μL and incubated at 37° C./5% CO2. Three hours after plating, 50 μL of ten 5-fold serial dilutions of compound were added, and cell cultures were incubated at 37° C./5% CO2 for 72 hours. In all cases, Huh-7 cells lacking the HCV replicon served as negative control. To assess luciferase expression, the media/compound was removed from the plates and ONE-glo Luciferase assay reagent (Promega) was added to each well. The assay plates were shaken for 3 minutes at room temperature and luciferase activity for each well was measured with a 1 sec read time on the Victor^3V multilabel counter using a 700 nm cut-off filter (Perkin Elmer). EC50 values were calculated from dose response curves from the resulting best-fit equations determined by Microsoft Excel and XLfit 4.1 software.

[2] = target: T1, HCV NS3-NS4A protease 5a (Hepatitis C virus genotype 5a, UniProt O39928); assay: HCV protease assay (FRET peptide), genotype 5a; format: biochemical; details: genotype 5a protease; 60 min at 30° C.; read-out: IC50 Against HS3/4A 5a
T1 construct: HCV NS3-NS4A protease, which was produced according to the method of Taremi et al; made in house
Method: (§2) General procedure: Measurement of the inhibitory effect of compounds on HCV protease activity was performed using the HiLyte Fluor™ TR/QXL™ 610 FRET peptide from AnaSpec, Inc. (San Jose, Calif.) under conditions developed in-house using 2-3 nM HCV NS3-NS4A protease, which was produced according to the method of Taremi et al. (Protein Science, 1998, 7, 2143-2149). The compounds were tested at a variety of concentrations in assay buffer containing a final DMSO concentration of 5%. Reactions were allowed to proceed for 60 min at 30° C. and fluorescence measurements were recorded with a PerkinElmer Victor^3 V 1420 Multilabel Counter. The IC50 values were determined from the percent inhibition versus concentration data using a sigmoidal non-linear regression analysis based on four parameters with XLfit 4.1 software.

[3] = tested on: HCV genotype 1a H77 strain subgenomic luciferase replicon (H1a-luc) in Huh-7 cells; assay: HCV luciferase replicon assay, genotype 1a (H1a-luc); format: cell-based; details: for FS (1a/1b): EC50 against genotype 1a HCV divided by EC50 against genotype 1b, replicon luciferase assay; for EC50: Hepatitis C virus, read-out: EC50 Against Relpicon 1a
Method: as §1

[4] = target: T2, HCV NS3-NS4A protease 4a (Hepatitis C virus genotype 4a, UniProt O39929); assay: HCV protease assay (FRET peptide), genotype 4a; format: biochemical; details: genotype 4a protease; 60 min at 30° C.; read-out: IC50 Against HS3/4A 4a
T2 construct: HCV NS3-NS4A protease, which was produced according to the method of Taremi et al; made in house
Method: as §2

[5] = target: T3, HCV NS3-NS4A protease 6a (Hepatitis C virus genotype 6a, UniProt O39927); assay: HCV protease assay (FRET peptide), genotype 6a; format: biochemical; details: genotype 6a protease; 60 min at 30° C.; read-out: IC50 Against HS3/4A 6a
T3 construct: HCV NS3-NS4A protease, which was produced according to the method of Taremi et al; made in house
Method: as §2

[6] = tested on: genotype 1b HCV replicon in Zluc cells; assay: Genotype 1b HCV replicon luciferase assay with 10% FCS or 45% human serum; format: cell-based; details: EC50 in presence of 45% HS divided by EC50 in presence of 10% FCS
Method: as §1
In Table 1, the values of FS with 45% HS were determined using the genotype 1b HCV replicon luciferase screening assay using Zluc cells, except that activity in the presence of 10% fetal calf serum (FCS) or 45% human serum (HS) was determined in parallel. The fold shift (FS) with 45% HS is the EC50 value in the presence of 45% HS divided by the EC50 value in the presence of 10% FCS. FS (1a/1b) is the EC50 value against genotype 1a HCV divided by the EC50 value against the genotype 1b in the replicon luciferase screening assay.

[7] = target: T4, HCV NS3-NS4A protease 1b (Hepatitis C virus genotype 1b, UniProt Q9WMX2); assay: HCV protease assay (FRET peptide), genotype 1b; format: biochemical
T4 construct: HCV NS3-NS4A protease, which was produced according to the method of Taremi et al; made in house
Method: as §2

[8] = target: T5, HCV NS3-NS4A protease 2a (Hepatitis C virus genotype 2a, UniProt Q99IB8); assay: HCV protease assay (FRET peptide), genotype 2a; format: biochemical; details: genotype 2a protease; 60 min at 30° C.; read-out: IC50 Against HS3/4A 2a
T5 construct: HCV NS3-NS4A protease, which was produced according to the method of Taremi et al; made in house
Method: as §2

[9] = Cytotoxicity evaluation, Cell Titer 96 AQueous One Solution; format: cell-based, human; details: human; Zluc cells, cellular viability
Method: For cytotoxicity evaluation, Zluc cells were treated with compounds as described above and cellular viability was monitored using the Cell Titer 96 AQueous One Solution Cell Proliferation Assay (Promega). Plates were then read at 490 nm in a Victor^3V 1420 multilabel counter (Perkin Elmer) and CC50 concentrations were determined using Microsoft Excel and XLfit 4.1 software.

[10] = target: T6, HCV NS3-NS4A protease 3a (Hepatitis C virus genotype 3a, UniProt Q81258); assay: HCV protease assay (FRET peptide), genotype 3a; format: biochemical
T6 construct: HCV NS3-NS4A protease, which was produced according to the method of Taremi et al; made in house
Method: as §2

[11] = target: T7, HCV NS3-NS4A protease 1a (Hepatitis C virus genotype 1a, UniProt P27958); assay: HCV protease assay (FRET peptide), genotype 1a; format: biochemical; details: genotype 1a protease; 60 min at 30° C.; read-out: IC50 Against HS3/4A 1a
T7 construct: HCV NS3-NS4A protease, which was produced according to the method of Taremi et al; made in house
Method: as §2

[12] = genotype 1b Con1 replicon, Huh-7 (Zluc), 72 hours
[13] = genotype 1a H77 replicon, Huh-7 (H1a-luc), 72 hours

T2 sequence (O39929 1658-1711): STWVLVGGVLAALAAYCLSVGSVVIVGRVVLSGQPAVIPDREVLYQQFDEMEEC
T2 sequence (O39929 1027-1208): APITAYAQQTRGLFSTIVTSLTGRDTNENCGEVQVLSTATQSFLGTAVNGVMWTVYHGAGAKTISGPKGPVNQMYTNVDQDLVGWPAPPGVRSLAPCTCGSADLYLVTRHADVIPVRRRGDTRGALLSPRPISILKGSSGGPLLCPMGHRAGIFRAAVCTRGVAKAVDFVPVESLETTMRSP
T6 sequence (Q81258 1664-1717): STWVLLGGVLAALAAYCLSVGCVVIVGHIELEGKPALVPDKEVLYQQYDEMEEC
T6 sequence (Q81258 1033-1214): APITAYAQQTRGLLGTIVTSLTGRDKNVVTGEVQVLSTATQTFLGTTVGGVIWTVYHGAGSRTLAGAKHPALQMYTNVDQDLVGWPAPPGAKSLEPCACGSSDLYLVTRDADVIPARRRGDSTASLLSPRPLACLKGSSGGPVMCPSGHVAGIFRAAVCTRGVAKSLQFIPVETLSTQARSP
T1 sequence (O39928 1659-1712): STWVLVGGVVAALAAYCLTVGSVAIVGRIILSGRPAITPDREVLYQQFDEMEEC
T1 sequence (O39928 1028-1209): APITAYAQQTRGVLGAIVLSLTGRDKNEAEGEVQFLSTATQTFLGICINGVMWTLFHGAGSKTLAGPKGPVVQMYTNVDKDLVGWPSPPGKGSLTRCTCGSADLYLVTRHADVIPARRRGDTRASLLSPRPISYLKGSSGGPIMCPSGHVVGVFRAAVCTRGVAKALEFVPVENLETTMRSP
T4 sequence (Q9WMX2 1658-1711): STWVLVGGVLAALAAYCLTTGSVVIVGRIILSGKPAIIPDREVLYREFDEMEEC
T4 sequence (Q9WMX2 1027-1208): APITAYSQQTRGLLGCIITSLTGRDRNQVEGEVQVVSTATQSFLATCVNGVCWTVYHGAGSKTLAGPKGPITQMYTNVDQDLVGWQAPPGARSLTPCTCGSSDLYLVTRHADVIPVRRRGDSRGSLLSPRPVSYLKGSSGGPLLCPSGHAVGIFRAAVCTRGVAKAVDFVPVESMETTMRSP
T7 sequence (P27958 1027-1208): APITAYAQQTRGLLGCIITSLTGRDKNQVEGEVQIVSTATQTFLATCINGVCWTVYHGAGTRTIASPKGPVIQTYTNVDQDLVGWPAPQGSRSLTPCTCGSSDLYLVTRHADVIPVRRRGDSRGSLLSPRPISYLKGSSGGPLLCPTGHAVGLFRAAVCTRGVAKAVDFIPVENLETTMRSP
T7 sequence (P27958 1658-1711): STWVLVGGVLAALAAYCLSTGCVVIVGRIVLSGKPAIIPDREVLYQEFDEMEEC
T3 sequence (O39927 1031-1212): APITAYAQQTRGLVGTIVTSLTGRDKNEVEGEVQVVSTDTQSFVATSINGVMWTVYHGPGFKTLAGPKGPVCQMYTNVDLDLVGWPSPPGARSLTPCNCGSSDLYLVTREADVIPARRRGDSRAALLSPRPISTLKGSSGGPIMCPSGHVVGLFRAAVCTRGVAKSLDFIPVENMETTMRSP
T3 sequence (O39927 1662-1715): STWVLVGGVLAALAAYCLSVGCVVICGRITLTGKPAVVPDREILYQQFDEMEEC
T5 sequence (Q99IB8 1662-1715): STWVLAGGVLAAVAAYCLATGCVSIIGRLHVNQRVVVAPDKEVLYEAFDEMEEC
T5 sequence (Q99IB8 1031-1212): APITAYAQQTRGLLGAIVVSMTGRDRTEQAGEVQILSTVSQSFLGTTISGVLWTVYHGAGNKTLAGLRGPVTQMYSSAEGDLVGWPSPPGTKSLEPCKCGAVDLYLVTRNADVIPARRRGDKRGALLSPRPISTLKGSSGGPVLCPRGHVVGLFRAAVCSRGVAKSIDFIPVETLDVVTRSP

SMILES	EC50 [1, 12]	IC50 [2]	FS (1a/1b) [3]	EC50 [3, 13]	IC50 [4]	IC50 [5]	FS with 45% HS [6]	IC50 [7]	IC50 [8]	CC50 [9]	IC50 [10]	IC50 [11]	EC50 ([1]; Huh-7, 72 h)	EC50 ([3]; Huh-7, 72 h)	IC50 ([7]; read-out: IC50 Against HS3/4A 1b, genotype 1b protease, 60 min at 30° C.)
COc1ccc2c(O[C@H]3CC[C@H]4C(=O)N(C)CCCC/C=C\[C@@H]5C[C@@]5(C(=O)NS(=O)(=O)C5(C)CC5)NC(=O)[C@@H]4C3)cc(-c3nc(C(F)(F)F)cs3)nc2c1C [Compound 17b, (1R,4R,6R,15R,18S)-1-methyl-cyclopropanesulfonic acid-{18-[7-methoxy-8-methyl-2-(4-trifluoromethyl-thiazol-2-yl)-quinolin-4-yloxy]-13-methyl-2,14-dioxo-3,13-diaza-tricyclo[13.4.0.0]nonadec-7-ene-4-carbonyl}-amide, reference compound]	< 0.01 µM	< 0.01 µM	6	< 0.01 µM	< 0.01 µM	< 0.01 µM	80	< 0.01 µM	< 0.01 µM	> 10 µM	0.1 to 1 µM	< 0.01 µM			
CN1CCCC/C=C\[C@@H]2C[C@@]2(C(=O)NS(=O)(=O)C2(C)CC2)NC(=O)[C@@H]2C[C@@H](Oc3cc(-c4nc(C(F)(F)F)cs4)nc(-c4nc(C(F)(F)F)cs4)n3)CC[C@H]2C1=O [Compound C104, (1R,4R,6R,15R,18S)-1-methyl-cyclopropanesulfonic acid {18-[2,6-bis(4-trifluoromethyl-thiazol-2-yl)-pyrimidin-4-yloxy]-13-methyl-2,14-dioxo-3,13-diaza-tricyclo[13.4.0.0]nonadec-7-ene-4-carbonyl}-amide]	< 0.01 µM		5	< 0.01 µM				< 0.01 µM		> 10 µM	0.01 to 0.1 µM				
C#Cc1csc(-c2cc(O[C@H]3CC[C@H]4C(=O)N(C)CCCC/C=C\[C@@H]5C[C@@]5(C(=O)NS(=O)(=O)C5(C)CC5)NC(=O)[C@@H]4C3)c3ccc(OC)c(C)c3n2)n1 [Compound 17a, (1R,4R,6R,15R,18S)-1-methyl-cyclopropanesulfonic acid {18-[2-(4-ethynyl-thiazol-2-yl)-7-methoxy-8-methyl-quinolin-4-yloxy]-13-methyl-2,14-dioxo-3,13-diaza-tricyclo[13.4.0.0]nonadec-7-ene-4-carbonyl}-amide, reference compound]	< 0.01 µM	< 0.01 µM	8	< 0.01 µM	< 0.01 µM	< 0.01 µM	29	< 0.01 µM	< 0.01 µM	> 10 µM	0.01 to 0.1 µM	< 0.01 µM			
CN1CCCC/C=C\[C@@H]2C[C@@]2(C(=O)NS(=O)(=O)C2(C)CC2)NC(=O)[C@@H]2C[C@@H](Oc3nc(-c4ccc(Cl)cc4)sc3-c3ccccc3)CC[C@H]2C1=O [Compound D104]			188							> 10 µM			0.01 to 0.1 µM	> 10 µM	0.01 to 0.1 µM
Cc1csc(-c2cc(O[C@H]3CC[C@H]4C(=O)N(C)CCCC/C=C\[C@@H]5C[C@@]5(C(=O)NS(=O)(=O)C5(C)CC5)NC(=O)[C@@H]4C3)cc(-c3nc(C(F)(F)F)cs3)n2)n1 [Compound C102, (1R,4R,6R,15R,18S)-1-methyl-cyclopropanesulfonic acid {13-methyl-18-[2-(4-methyl-thiazol-2-yl)-6-(4-trifluoromethyl-thiazol-2-yl)-pyridin-4-yloxy]-2,14-dioxo-3,13-diaza-tricyclo[13.4.0.0]nonadec-7-ene-4-carbonyl}-amide]	< 0.01 µM		5	< 0.01 µM				< 0.01 µM		> 10 µM	< 0.01 µM				
CN1CCCC/C=C\[C@@H]2C[C@@]2(C(=O)NS(=O)(=O)C2(C)CC2)NC(=O)[C@@H]2C[C@@H](Oc3nc(-c4cccc(C(F)(F)F)c4)sc3-c3ccccc3)CC[C@H]2C1=O [Compound D101, (1R,4R,6R,15R,18S)-1-methyl-cyclopropanesulfonic acid {13-methyl-2,14-dioxo-18-[5-phenyl-2-(3-trifluoromethyl-phenyl)-thiazol-4-yloxy]-3,13-diaza-tricyclo[13.4.0.0]nonadec-7-ene-4-carbonyl}-amide]	0.01 to 0.1 µM		147	1 to 10 µM				0.01 to 0.1 µM		> 10 µM	0.01 to 0.1 µM				
CC(C)c1csc(-c2cc(O[C@H]3CC[C@H]4C(=O)N(C)CCCC/C=C\[C@@H]5C[C@@]5(C(=O)NS(=O)(=O)C5(C)CC5)NC(=O)[C@@H]4C3)nc(-c3nc(C(F)(F)F)cs3)n2)n1 [Compound C103, (1R,4R,6R,15R,18S)-1-methyl-cyclopropanesulfonic acid {18-[6-(4-isopropyl-thiazol-2-yl)-2-(4-trifluoromethyl-thiazol-2-yl)-pyrimidin-4-yloxy]-13-methyl-2,14-dioxo-3,13-diaza-tricyclo[13.4.0.0]nonadec-7-ene-4-carbonyl}-amide]	< 0.01 µM		6	< 0.01 µM				< 0.01 µM		> 10 µM	< 0.01 µM				
COc1ccc2c(O[C@H]3CC[C@H]4C(=O)N(C)CCCC/C=C\[C@@H]5C[C@@]5(C(=O)NS(=O)(=O)C5(C)CC5)NC(=O)[C@@H]4C3)cc(-c3nc(C(C)C)cs3)nc2c1C [Compound A101, (1R,4R,6R,15R,18S)-1-methyl-cyclopropanesulfonic acid {18-[2-(4-isopropyl-thiazol-2-yl)-7-methoxy-8-methyl-quinolin-4-yloxy]-13-methyl-2,14-dioxo-3,13-diaza-tricyclo[13.4.0.0]nonadec-7-ene-4-carbonyl}-amide]	< 0.01 µM	0.01 to 0.1 µM	6	0.01 to 0.1 µM	< 0.01 µM	< 0.01 µM	>40	< 0.01 µM	0.01 to 0.1 µM	> 10 µM	0.1 to 1 µM	< 0.01 µM			
